Patent US12565490B2, “Inhibitors of Receptor Interacting Protein Kinase I for the treatment of disease” (Board of Regents, The University of Texas System, priority 2020, dated 2026)

Test system: human monocytic cell line U937
Assay: Human U937 cellular necroptosis assay
Format: cell-based
Details: U-937; U937 cells stimulated with 25 ng/mL human TNFalpha and 25 μM z-VAD-FMK; 22 hr; viability by Cell Titer-Glo 2.0; read-out: hU937 IC50
Protocol: Human U937 Cellular Necroptosis Assay
The human monocytic cell line U937 (CRL-1593.2) may be purchased from ATCC. The cells are routinely maintained in RPMI-1640 Medium (Gibco, Catalog #11875-093) supplemented with 10% heat inactivated fetal bovine serum (Gibco, Catalog #16140-071), 100 units/mL penicillin and 100 μg/mL streptomycin (Gibco, Catalog #15140-122), in a humidified incubator (37° C., 5% CO2). For the assay, cells are resuspended in RPMI-1640 phenol red free Media (Gibco, Catalog #11835-030) supplemented with 10% fetal bovine serum (Sigma, Catalog #F2442), 100 units/mL penicillin and 100 ug/mL streptomycin. Cells are stimulated with 25 ng/mL human TNFalpha (Cell Sciences, Catalog #CSI15659B) and 25 μM z-VAD-FMK (R&D Systems, Catalog #FMK001) followed by seeding 5000 cells per well in a volume of 40 μL to a white, CulturPlate-384 (Perkin Elmer, Catalog #6007680). Stock solutions of the test compounds are prepared in 100% DMSO (Sigma, Catalog #D2650) and serially diluted 1:3 using 100% DMSO. Compounds are additionally diluted 1:40 in assay medium, and 10 μL/well was transferred to the plate. Following the compound addition, the plate is incubated at 37° C. and 5% CO2 for 22 hr. After 22 hr, viability is assessed with the addition of 20 μL of Cell Titer-Glo 2.0 (Promega, Catalog #G9243). The tissue culture plate is shaken on an orbital shaker at 300 RPM for 15 minutes at room temperature in the dark. Luminescence is measured using a PerkinElmer Envision™ plate reader. IC50 values are calculated using a four-parameter logistic curve fit using Genedata Screener software. Compounds disclosed herein are expected to have activity in this assay.

In the case of `Cc1cnc(C(=O)N[C@H]2COc3cc(C#N)ccc3N(C)C2=O)nc1N1CCN(C)CC1` [Example 31, (S)-N-(8-cyano-5-methyl-4-oxo-2,3,4,5-tetrahydro-benzo[b][1,4]oxazepin-3-yl)-5-methyl-4-(4-methylpiperazin-1-yl)pyrimidine-2-carboxamide], the IC50 is reported as ≥ 10 µM.

Work on `Cc1cnc(C(=O)N[C@H]2COc3cc(C#N)ccc3N(C)C2=O)nc1N1CC(F)(F)C1` [Example 32, (S)-N-(8-cyano-5-methyl-4-oxo-2,3,4,5-tetrahydro-benzo[b][1,4]oxazepin-3-yl)-4-(3,3-difluoroazetidin-1-yl)-5-methylpyrimidine-2-carboxamide] yielded an IC50 of 1.12 µM.

`Cc1ccc(C(=O)N[C@H]2COc3cc(C#N)ccc3N(C)C2=O)nc1Br` [Example 33, (S)-6-bromo-N-(8-cyano-5-methyl-4-oxo-2,3,4,5-tetrahydro-benzo[b][1,4]oxazepin-3-yl)-5-methylpicolinamide] was tested, and the IC50 was ≥ 10 µM.

With `Cc1ccc(C(=O)Nc2cccc(Cl)c2F)nc1-c1ccccc1` [Example 34, N-(3-chloro-2-fluorophenyl)-5-methyl-6-phenylpicolinamide] the IC50 was ≥ 10 µM.

In the case of `Cc1ccc(C(=O)Nc2cccc(Cl)c2F)nc1-c1cc(F)ccc1F` [Example 35, N-(3-chloro-2-fluorophenyl)-6-(2,5-difluorophenyl)-5-methylpicolinamide], the IC50 is reported as ≥ 10 µM.

For `Cc1ccc(C(=O)N[C@H]2COc3cc(C#N)ccc3N(C)C2=O)nc1-c1ccc(F)cc1` [Example 36, (S)-N-(8-cyano-5-methyl-4-oxo-2,3,4,5-tetrahydro-benzo[b][1,4]oxazepin-3-yl)-6-(4-fluorophenyl)-5-methyl-picolinamide], the IC50 was 0.26 µM.

Molecule `CN1C(=O)[C@@H](NC(=O)c2ccc(Cl)c(-c3ccc(F)cc3)n2)COc2cc(C#N)ccc21` [Example 37, (S)-5-chloro-N-(8-cyano-5-methyl-4-oxo-2,3,4,5-tetrahydro-benzo[b][1,4]oxazepin-3-yl)-6-(4-fluorophenyl)picolinamide] has an IC50 of 1.56 µM.

For `Cc1cnc(C(=O)N[C@H]2COc3cc(C#N)ccc3N(C)C2=O)nc1-c1ccc(F)cc1F` [Example 38, (S)-N-(8-cyano-5-methyl-4-oxo-2,3,4,5-tetrahydro-benzo[b][1,4]oxazepin-3-yl)-4-(2,4-difluorophenyl)-5-methyl-pyrimidine-2-carboxamide], the IC50 was 0.0189 µM.

`Cc1cnc(C(=O)N[C@H]2COc3ccc(CN4CCn5ncnc5C4)cc3N(C)C2=O)nc1-c1ccccc1` [Example 39, (S)-N-(7-((5,6-dihydro-[1,2,4]triazolo[1,5-a]pyrazin-7(8H)-yl)methyl)-5-methyl-4-oxo-2,3,4,5-tetrahydro-benzo[b][1,4]oxazepin-3-yl)-5-methyl-4-phenylpyrimidine-2-carboxamide] showed an IC50 of 0.0129 µM.

Molecule `Cc1ccc(C(=O)N[C@H]2COc3cc(C#N)ccc3N(C)C2=O)nc1-c1ccccc1` [Example 40, (S)-N-(8-cyano-5-methyl-4-oxo-2,3,4,5-tetrahydro-benzo[b][1,4]oxazepin-3-yl)-5-methyl-6-phenylpicolinamide] has an IC50 of 1.57 µM.

`Cc1ccc(C(=O)N[C@H]2COc3cc(C#N)ccc3N(C)C2=O)nc1-c1cc(F)ccc1F` [Example 41, (S)-N-(8-cyano-5-methyl-4-oxo-2,3,4,5-tetrahydro-benzo[b][1,4]oxazepin-3-yl)-6-(2,5-difluorophenyl)-5-methylpicolinamide] was tested, and the IC50 was 0.594 µM.

In the case of `Cc1cnc(C(=O)N[C@H]2COc3cc(C#N)ccc3N(C)C2=O)nc1-c1ccccc1F` [Example 42, (S)-N-(8-cyano-5-methyl-4-oxo-2,3,4,5-tetrahydro-benzo[b][1,4]oxazepin-3-yl)-4-(2-fluorophenyl)-5-methylpyrimidine-2-carboxamide], the IC50 is reported as 0.0194 µM.

For `Cc1cnc(C(=O)N[C@H]2COc3cc(C#N)ccc3N(C)C2=O)nc1C1CCCOC1` (stereo partly drawn) [Example 43, N-((S)-8-cyano-5-methyl-4-oxo-2,3,4,5-tetrahydro-benzo[b][1,4]oxazepin-3-yl)-5-methyl-4-(tetrahydro-2H-pyran-3-yl)pyrimidine-2-carboxamide], the IC50 was 0.154 µM.

`Cc1cnc(C(=O)N[C@H]2COc3cc(C#N)ccc3N(C)C2=O)nc1N1CC2CCC1C2` (stereo partly drawn) [Example 44, 4-(2-azabicyclo[2.2.1]heptan-2-yl)-N-((S)-8-cyano-5-methyl-4-oxo-2,3,4,5-tetrahydro-benzo[b][1,4]oxazepin-3-yl)-5-methylpyrimidine-2-carboxamide] was tested, and the IC50 was 0.789 µM.

For `Cc1cnc(C(=O)N[C@H]2COc3cccnc3N(C)C2=O)nc1-c1ccccc1F` [Example 45, (S)-4-(2-fluorophenyl)-5-methyl-N-(5-methyl-4-oxo-2,3,4,5-tetrahydropyrido[3,2-b][1,4]oxazepin-3-yl)pyrimidine-2-carboxamide], the IC50 was 0.01 µM.

`CN1C(=O)[C@@H](NC(=O)c2ncc(Cl)c(-c3ccc(F)cc3F)n2)COc2ccccc21` [Example 46, (S)-5-chloro-4-(2,4-difluorophenyl)-N-(5-methyl-4-oxo-2,3,4,5-tetrahydrobenzo[b]-[1,4]oxazepin-3-yl)pyrimidine-2-carboxamide] was tested, and the IC50 was 0.0118 µM.

For `CN1C(=O)[C@@H](NC(=O)c2ncc(Cl)c(-c3ccccc3F)n2)COc2cccnc21` [Example 47, (S)-5-chloro-4-(2-fluorophenyl)-N-(5-methyl-4-oxo-2,3,4,5-tetrahydro-pyrido[3,2-b][1,4]oxazepin-3-yl)pyrimidine-2-carboxamide], the IC50 was 0.0298 µM.

`CN1C(=O)[C@@H](NC(=O)c2ncc(Cl)c(-c3cccc(F)c3)n2)COc2cccnc21` [Example 48, (S)-5-chloro-4-(3-fluorophenyl)-N-(5-methyl-4-oxo-2,3,4,5-tetrahydro-pyrido[3,2-b][1,4]oxazepin-3-yl)pyrimidine-2-carboxamide] gave an IC50 of 0.0132 µM.

In the case of `CN1C(=O)[C@@H](NC(=O)c2ncc(Cl)c(-c3ccc(F)cc3)n2)COc2cccnc21` [Example 49, (S)-5-chloro-4-(4-fluorophenyl)-N-(5-methyl-4-oxo-2,3,4,5-tetrahydro-pyrido[3,2-b][1,4]oxazepin-3-yl)pyrimidine-2-carboxamide], the IC50 is reported as 0.00835 µM.

`CN1C(=O)[C@@H](NC(=O)c2ncc(Cl)c(-c3ccc(F)cc3F)n2)COc2cccnc21` [Example 50, (S)-5-chloro-4-(2,4-difluorophenyl)-N-(5-methyl-4-oxo-2,3,4,5-tetrahydro-pyrido[3,2-b][1,4]oxazepin-3-yl)pyrimidine-2-carboxamide] was tested, and the IC50 was 0.00929 µM.

For `CN1C(=O)[C@@H](NC(=O)c2ncc(Cl)c(-c3cc(F)ccc3F)n2)COc2cccnc21` [Example 51, (S)-5-chloro-4-(2,5-difluorophenyl)-N-(5-methyl-4-oxo-2,3,4,5-tetrahydro-pyrido[3,2-b][1,4]oxazepin-3-yl)pyrimidine-2-carboxamide], the IC50 was 0.0106 µM.

With `CN1C(=O)[C@@H](NC(=O)c2ncc(Cl)c(-c3ccc(Cl)cc3)n2)COc2cccnc21` [Example 52, (S)-5-chloro-4-(4-chlorophenyl)-N-(5-methyl-4-oxo-2,3,4,5-tetrahydro-pyrido[3,2-b][1,4]oxazepin-3-yl)pyrimidine-2-carboxamide] the IC50 was 0.012 µM.

Work on `Cc1ccc(-c2nc(C(=O)N[C@H]3COc4cccnc4N(C)C3=O)ncc2Cl)c(F)c1` [Example 53, (S)-5-chloro-4-(2-fluoro-4-methylphenyl)-N-(5-methyl-4-oxo-2,3,4,5-tetrahydro-pyrido[3,2-b][1,4]oxazepin-3-yl)pyrimidine-2-carboxamide] yielded an IC50 of 0.0117 µM.

Molecule `Cc1ccc(-c2nc(C(=O)N[C@H]3COc4cccnc4N(C)C3=O)ncc2Cl)cc1F` [Example 54, (S)-5-chloro-4-(3-fluoro-4-methylphenyl)-N-(5-methyl-4-oxo-2,3,4,5-tetrahydro-pyrido[3,2-b][1,4]oxazepin-3-yl)pyrimidine-2-carboxamide] has an IC50 of 0.0136 µM.

Molecule `C[C@H]1Oc2cccnc2N(C)C(=O)[C@H]1NC(=O)c1ncc(Cl)c(-c2ccc(F)cc2F)n1` [Example 55, 5-chloro-4-(2,4-difluorophenyl)-N-((2R,3S)-2,5-dimethyl-4-oxo-2,3,4,5-tetrahydropyrido[3,2-b]-[1,4]oxazepin-3-yl)pyrimidine-2-carboxamide] has an IC50 of 0.0344 µM.

`CN1C(=O)[C@@H](NC(=O)c2ncc(Cl)c(-c3cncc(F)c3)n2)COc2cccnc21` [Example 56, (S)-5-chloro-4-(5-fluoropyridin-3-yl)-N-(5-methyl-4-oxo-2,3,4,5-tetrahydropyrido[3,2-b]-[1,4]oxazepin-3-yl)pyrimidine-2-carboxamide] showed an IC50 of 0.18 µM.

Work on `Cc1cnc(C(=O)N[C@H]2COc3cccnc3N(C)C2=O)nc1C12CCC(CC1)CC2` [Example 57, (S)-4-(bicyclo[2.2.2]octan-1-yl)-5-methyl-N-(5-methyl-4-oxo-2,3,4,5-tetrahydro-pyrido[3,2-b][1,4]oxazepin-3-yl)pyrimidine-2-carboxamide] yielded an IC50 of 0.0909 µM.

With `Cc1cnc(C(=O)N[C@H]2COc3cccnc3N(C)C2=O)nc1C1CCOCC1` [Example 58, (S)-5-methyl-N-(5-methyl-4-oxo-2,3,4,5-tetrahydro-pyrido[3,2-b][1,4]oxazepin-3-yl)-4-(tetrahydro-2H-pyran-4-yl)pyrimidine-2-carboxamide] the IC50 was 0.229 µM.
